Data reported in patent US9988371B2, “Benzimidazole analogues and related methods” (The Arizona Board of Regents, on Behalf of the University …, priority 2014, dated 2018).
“Also recorded” adds a separate entry of the source.

Experiments:
[1] = test system: RET (RET/C634Y, RET/M918T, RET/C634W, RET/PTC1, RET/PTC3, KIF5B-RET, RET/C634R-V804M); experiment: RET auto-phosphorylation immunoblot, all cell lines and mutations tested; type: cell-based
Description: FIG. 1: Photographs of blots showing inhibition of phosphorylation of RET/C634Y and RET/M918T in intact cells by Pz-1 or vehicle (NT: not treated). Serum-starved NIH3T3 cells expressing RET/C634Y or RET/M918T mutants were treated for 2 hr with indicated concentrations of Pz-1. 50 μg of total cell lysates were subjected to immunoblotting with anti-phospho-Y1062 (αp1062) or anti-phospho-Y905 (αp905) RET antibodies. The blots were normalized using anti-RET (αRET) antibodies.
(§1) FIG. 2: Photographs of blots showing inhibition of phosphorylation of gate-keeper RET point mutant and rearranged RET oncoproteins by Pz-1 or vehicle (NT: not treated). HEK293 cells were transiently transfected with vectors expressing RET/C634R-V804M mutant (V804 is the gate-keeper RET residue), or RET/PTC1 (CCDC6-RET, found in papillary thyroid carcinoma and lung adenocarcinoma), RET/PTC3 (NCOA4-RET, found in papillary thyroid carcinoma and lung adenocarcinoma), or KIF5B-RET (found in lung adenocarcinoma). After 36 hr from transfection, cells were serum-starved for 12 hr and then treated for 2 hr with indicated concentrations of Pz-1. 50 μg of total cell lysates were subjected to immunoblotting with anti-phospho-Y1062 (αp1062) and anti-phospho-Y905 (αp905) RET antibodies. The blots were normalized using anti-RET (αRET) antibody.
FIG. 3: Photographs of blots showing inhibition of RET protein endogenously expressed in TT cells (human MTC cell line expressing RET/C634W) by indicated concentrations of Pz-1 or vehicle (NT: not treated) and reduced effects in thyroid non-transformed Nthy-ori-3-1 cells. […]
(§2) The inhibition of RET auto-phosphorylation by Pz-1 was measured in several different cell lines including NIH3T3 fibroblasts expressing RET/C634Y or RET/M918T, TT expressing RET/C634W (MTC), Nthy-ory-3-1 (thyroid, non-transformed with RET; negative control), HEK293/RET/PTC1 (CCDC6-RET that can be found in PTC & lung cancer), HEK293/RET-KIF5B (that can be found in lung cancer), HEK293/RET/PTC3 (NCOA4-RET, that can be found in PTC & lung cancer), and HEK293 transfected with RET/C634R-V804M (FIGS. 1-3). […]

[2] = target: T1, RET/C634R-V804M (Homo sapiens, UniProt P07949, C634R/V804M); experiment: RET auto-phosphorylation immunoblot in transfected HEK293 cells; type: cell-based; conditions: 1 nM, 2 hrs, cells expressing RET/C634R-V804M
T1 construct: expressed in transfected cells; host or cells: HEK293
Excerpt: as §1, §2

T1 sequence (P07949 29-1072 isoform P07949-2 C634R/V804M limits assumed): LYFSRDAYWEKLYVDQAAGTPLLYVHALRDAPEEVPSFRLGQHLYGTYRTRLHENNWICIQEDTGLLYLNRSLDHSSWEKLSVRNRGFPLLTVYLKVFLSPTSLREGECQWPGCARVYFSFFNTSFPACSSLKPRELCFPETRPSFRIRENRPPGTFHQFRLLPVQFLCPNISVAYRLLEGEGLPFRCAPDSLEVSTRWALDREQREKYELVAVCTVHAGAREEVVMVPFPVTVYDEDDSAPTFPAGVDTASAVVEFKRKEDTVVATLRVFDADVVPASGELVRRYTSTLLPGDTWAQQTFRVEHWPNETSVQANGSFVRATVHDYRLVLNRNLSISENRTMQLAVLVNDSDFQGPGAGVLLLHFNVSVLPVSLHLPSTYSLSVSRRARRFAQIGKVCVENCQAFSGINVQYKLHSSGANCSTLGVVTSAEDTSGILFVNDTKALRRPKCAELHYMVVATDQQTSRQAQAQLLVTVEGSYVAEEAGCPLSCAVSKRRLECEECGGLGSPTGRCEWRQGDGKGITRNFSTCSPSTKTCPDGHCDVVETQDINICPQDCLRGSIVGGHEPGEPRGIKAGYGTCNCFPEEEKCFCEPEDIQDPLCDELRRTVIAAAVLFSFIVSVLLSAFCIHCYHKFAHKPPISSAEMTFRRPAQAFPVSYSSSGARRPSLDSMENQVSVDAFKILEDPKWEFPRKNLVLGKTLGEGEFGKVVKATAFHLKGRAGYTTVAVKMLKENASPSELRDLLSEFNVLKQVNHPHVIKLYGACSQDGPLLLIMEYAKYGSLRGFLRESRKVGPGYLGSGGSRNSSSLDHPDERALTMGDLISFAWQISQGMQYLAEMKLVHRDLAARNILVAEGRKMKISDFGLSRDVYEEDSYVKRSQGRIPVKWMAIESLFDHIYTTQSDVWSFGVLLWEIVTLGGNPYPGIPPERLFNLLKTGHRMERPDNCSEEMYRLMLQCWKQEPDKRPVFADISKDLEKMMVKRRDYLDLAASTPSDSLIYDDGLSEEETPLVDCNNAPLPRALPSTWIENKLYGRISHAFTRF

In the case of `Cn1cc(-c2ccc3c(c2)ncn3-c2ccc(CC(=O)Nc3cc(C(C)(C)C)on3)cc2)cn1` [Pz-1, N-(5-(tert-butyl)isoxazol-3-yl)-2-(4-(5-(1-methyl-1H-pyrazol-4-yl)-1H-benzo[d]imidazol-1-yl)phenyl)acetamide], the “inhibition of pRET” value ([1]; 1 nM, 2 hrs, all cell-lines) is reported as “strong inhibition; also recorded: strongly inhibited”, the “concentration at which potent on RET and all tested RET mutants including RET/V804M” value ([1]; FIGS. 1-3) is reported as “less than 1 nM” and the “inhibition of RET auto-phosphorylation” value ([1]; nanomolar concentrations, all cell lines and mutations tested) is reported as 90%. For the same compound, the “inhibition of pRET” value [2] was “strongly inhibited”.
